Laboratory results published in patent US8772318B2, “Methods and compositions related to targeting monoacylglycerol lipase” (The Scripps Research Institute, priority 2008, dated 2014).

How the values were obtained:
FAAH = molecular target: T1, FAAH (Mus musculus, UniProt O08914); assay: FAAH activity of brain membranes from treated mice (competitive ABPP, oleamide substrate assay); type: in vivo; settings: URB597 10 mg/kg, i.p.
T1 construct: from tissue; host or cells: mouse brain membrane fraction
T1 sequence (O08914 1-579): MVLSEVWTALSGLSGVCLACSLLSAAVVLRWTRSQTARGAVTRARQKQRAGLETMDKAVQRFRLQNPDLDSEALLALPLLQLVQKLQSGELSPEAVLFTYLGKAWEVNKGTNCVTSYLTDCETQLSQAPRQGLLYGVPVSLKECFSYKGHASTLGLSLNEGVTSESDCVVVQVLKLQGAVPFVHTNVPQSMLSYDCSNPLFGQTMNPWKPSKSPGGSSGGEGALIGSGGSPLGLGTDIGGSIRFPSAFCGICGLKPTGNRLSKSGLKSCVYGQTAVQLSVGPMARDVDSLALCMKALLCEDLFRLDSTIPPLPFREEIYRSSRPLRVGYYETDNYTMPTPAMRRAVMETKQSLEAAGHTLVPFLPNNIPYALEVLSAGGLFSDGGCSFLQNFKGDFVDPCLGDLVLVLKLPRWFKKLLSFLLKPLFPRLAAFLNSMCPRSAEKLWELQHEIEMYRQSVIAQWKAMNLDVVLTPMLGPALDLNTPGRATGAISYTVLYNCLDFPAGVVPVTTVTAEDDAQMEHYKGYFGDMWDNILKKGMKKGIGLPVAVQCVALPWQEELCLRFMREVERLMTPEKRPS
Protocol: Enzyme activity assays. Briefly, 2-AG (100 μM) was incubated with mouse brain membrane (20 μg) or recombinant MAGL in COS7 cells (0.1 μg) in PBS (200 μl) at room temperature for 10 min. The reactions were quenched by the addition of 500 μL 2:1 v/v CHCl3:MeOH, doped with 0.5 nmol PDA, vortexed, then centrifuged (1,400×g, 3 min) to separate the phases. 30 ul of the resultant organic phase was injected onto an Agilent 1100 series LC-MSD SL instrument. […] Mobile phase A was composed of 95:5 v/v H2O:MeOH, and mobile phase B was composed of 60:35:5 v/v/v i-PrOH:MeOH:H2O. 0.1% ammonium hydroxide was included to assist in ion formation in negative ionization mode. […] Hydrolysis products were quantified by measuring the area under the peak in comparison to the PDA standard. ^13C-oleamide or AEA hydrolysis activity was determined using mouse brain membrane (50 μg) or recombinant FAAH in COST cells (5 μg), respectively, in PBS (100 μl). […] DAGLβ hydrolysis activity was determined using recombinant DAGLβ in HEK293 cells (50 μg) in PBS (100 μl). […]
Competitive activity-based protein profiling (ABPP) experiments. […] After 30 min at room temperature, the reactions were quenched with 4×SDS-PAGE loading buffer, boiled for 5 min at 90° C., subjected to SDS-PAGE, and visualized in-gel using a flatbed fluorescence scanner. […]

[1] = tested on: brain levels of 2-AG, arachidonic acid, NAEs, MAGs, free fatty acids; assay: Measurement of brain lipids in treated mice; type: in vivo, mouse; settings: URB597 10 mg/kg, i.p.
Protocol: Measurement of brain lipids. One half brain was weighed and subsequently Dounce homogenized in 2:1:1 v/v/v CHCl3:MeOH:Tris pH 8.0 (8 ml) containing standards for N-acylethanolamine (NAE), monoacylglycerol (MAG), or free fatty acid (FFA) measurements (200 pmol d4-OEA, 20 pmol d4-AEA, 400 pmol C15:0-MAG, and 4 nmol PDA). The mixture was vortexed and then centrifuged (1,400×g, 10 min). The organic layer was removed, CHCl3 was added until the final volume was again 8 ml, and the extraction was repeated. The combined organic extracts were dried under a stream of N2 and resolubilized in 2:1 v/v CHCl3:MeOH (120 μl). 30 uL and 15 uL of resolubilized lipid were injected for positive mode (MAG and NAE) and negative mode (free fatty acid) measurements, respectively. Lipid measurements were performed by LC-MS using the same instrument and solvents as described above. Solvent modifiers such as 0.1% formic acid or 0.1% ammonium hydroxide were included to assist in ion formation in positive and negative ionization mode, respectively. For positive mode measurements, the flow rate for each run started at 0.1 ml/min for 5 min. […] MAGs, NAEs, and FFAs were quantified by measuring the area under the peak in comparison to the C15:0 or deuterated standards. […]

[2] = Tail immersion assay of thermal pain sensation; type: in vivo, mouse; settings: rimonabant 3 mg/kg before JZL184 16 mg/kg
Protocol: (§1) Behavioral Studies. […] A total of four groups of mice were used, with a sample size of 14 mice/group. Before injections, the mice were evaluated for baseline responses in the tail immersion test, as well for rectal temperatures. […] For determining hypomotility each mouse was placed in a clear Plexiglas box (42.7×21.0×20.4 cm) for a 10 min assessment period and Anymaze (Stoelting, Wood Dale, Ill.) software was used to determine the percentage of time spent immobile. Subjects were assessed for nociception in the tail immersion assay. Each mouse was placed head first into a small bag fabricated from absorbent under pads (VWR Scientific Products; 4 cm diameter, 11 cm length) with the tail out of the bag. The experimenter gently held the mouse and immersed approximately 1 cm of the tip of the tail into a water bath maintained at 56.0° C. The latency for the animal to withdraw its tail from the water within a 10 s cutoff time was scored. Catalepsy was evaluated using the bar test, in which the front paws of each subject were placed on a rod (0.75 cm diameter) that was elevated 4.5 cm above the surface. Mice that remained motionless with their paws on the bar for 10 s (with the exception of respiratory movements) were scored as cataleptic. […] Rectal temperature was determined by inserting a thermocouple probe 2.0 cm into the rectum and temperature was obtained from a telethermometer.

[3] = Acetic acid abdominal stretching (writhing) assay; type: in vivo, mouse; settings: rimonabant 3 mg/kg before JZL184 16 mg/kg
Protocol: A second group of naïve subjects (n=10-11 mice/group) were evaluated in the acetic acid stretching assay. […] Acetic acid (0.6%) was injected intraperitoneally in a volume of 10 μl/g body weight 120 min after the second injection. The number of stretches (constriction of abdomen, turning of trunk (twist) and extension of the body and hind limbs) per mouse was counted during a 20-min period after the administration of acetic acid.

[4] = Rectal temperature (hypothermia); type: in vivo, mouse; settings: rimonabant 3 mg/kg before JZL184 16 mg/kg
Protocol: as §1

[5] = Locomotor activity (hypomotility); type: in vivo, mouse
Protocol: as §1

[6] = Bar test (catalepsy, hyperreflexia); type: in vivo, mouse; settings: rimonabant 3 mg/kg before JZL184 16 mg/kg
Protocol: as §1

[7] = tested on: human cancer cell lines (C8161, SKOV3, 231MFP, MUM2C, OVCAR3); assay: Lipid measurements in cancer cells; type: cell-based; settings: antagonist 1 μM, 4 hr
Protocol: Pharmacological inhibition of MAGL in cancer cells. Pharmacological inhibition studies were conducted as described previously (Chiang et al., Chem. Biol. 13:1041-1050, 2006). Cancer cells were maintained in RPMI medium 1640 with 10% (v/v) fetal calf serum at 37° C. in a humidified atmosphere of 5% CO2/95% air. At 80% confluency, cells were trypsinized and counted using a hemocytometer, and 1×10^6 cells were plated in 6 cm dishes (subconfluent). […] After incubation for 4 hr, the cells were harvested and analyzed by ABPP or LC-MS.
Lipid measurements in cancer cells. Lipid measurements were conducted similarly to protocols described previously (Chiang et al., 2006; supra). Cancer cells were grown in serum-free media for 4 hrs to minimize the contribution of serum-derived lipids to the cellular profiles. The cells (1×10^6 cells/6 cm dish, 80% confluency) were washed with twice with phosphate buffer saline (PBS), isolated by centrifugation at 1,400×g, and dounce-homogenized in 4 ml of a 2:1:1 mixture of chloroform:methanol:Tris buffer. Samples were homogenized in the presence of the following synthetic standards: C12:0 MAGE (10 nmol), C15:0 FFA (10 nmol). Organic and aqueous layers were separated by centrifugation at 2000×g for 5 min and the organic layer was collected. The aqueous layer was acidified (for metabolites such as LPA) by adding 5% formic acid, followed by the addition of 2 ml chloroform. The mixture was vortexed, and the organic layers were combined, dried down under N2 and dissolved in 100 μl chloroform, of which 30 μl was analyzed by LC-MS.
LC-MS analysis was performed by using an Agilent 1100 LC-MSD SL instrument. […] Mobile phase A was composed of a 95:5 ratio of water:methanol, and mobile phase B consisted of 2-propanol, methanol, and water in a 60:35:5 ratio. Solvent modifiers such as 0.1% formic acid and 0.1% ammonium hydroxide were used to assist ion formation as well as to improve the LC resolution in both positive and negative ionization modes, respectively. The flow rate for each run started at 0.1 ml/min for 5 min, to alleviate backpressure associated with injecting chloroform. The gradient started at 0% B and increased linearly to 100% B over the course of 45 min with a flow rate of 0.4 ml/min, followed by an isocratic gradient of 100% B for 17 min at 0.5 ml/min before equilibrating for 8 min at 0% B with a flow rate of 0.5 ml/min. MS analysis was performed with an electrospray ionization (ESI) source. The capillary voltage was set to 3.0 kV, and the fragmentor voltage was set to 100 V. The drying gas temperature was 350° C., the drying gas flow rate was 10 L/min, and the nebulizer pressure was 35 psi.
Lipidomic analysis was performed in both targeted and untargeted mode by LC-MS analysis. Standard lipid classes were quantitated by targeting using selected ion monitoring (SIM) (except for very high-abundance metabolites which were quantitated by untargeted analysis) and identities of metabolites were confirmed by coelution of metabolites with their respective standards and mass accuracy to within 10 ppm as determined with an accurate mass Agilent 6520 Accurate Mass QTOF-MS-MS. These lipids were quantified by measuring the area under the peak and were normalized to an internal standard (C12:0 MAGE in positive mode or C15:0 FFA in negative mode). […]

[8] = tested on: human cancer cell lines (C8161, SKOV3, 231MFP, MUM2C, OVCAR3); assay: Cell migration assay (Transwell); type: cell-based; settings: antagonist 1 μM, 4 hr
Protocol: Cell migration, cell survival, and invasion studies. Migration assays were performed in Transwell chambers (Corning) with 8 μm pore-sized membranes coated with 10 μg/ml collagen for 4 h at 37° C. A total of 24 hr before the start of the migration assay, cancer cell lines were plated at a concentration of 1×10^6 cells per 6 cm dish. At the start of the migration assay, cells were harvested by washing two times with PBS and were then serum starved in serum-free media for 4 hr. Inhibitor, lipid or vehicle (0.1% DMSO) were preincubated with the cells during this 4 h time. Serum-starved cells were trypsinized, spun at 1400×g for 3 min, resuspended, and counted. 50,000 cells were seeded in the upper chamber of the transwells in 200 μl serum-free media (containing inhibitor, lipid or vehicle). Inhibitor, lipid or vehicle was also added to the lower chamber, and cells were allowed to migrate for 5 h (for C8161 and 231MFP cells) or 20 hr (SKOV3, MUM2C and OVCAR3 cells). The filters were then fixed and stained with Diff-Quik (Dade Behring). Cells that had not migrated through the chamber were removed with a cotton ball. The cells that migrated were counted at a magnification of 400×, and 4 fields were independently counted from each migration chamber. An average of cells in 4 fields for one migration chamber represents n=1.

SMILES	brain FAAH activity (FAAH)	brain 2-AG or arachidonic acid levels [1]	brain anandamide and other NAEs [1]	effect of rimonabant pre-treatment on JZL184 analgesia, tail immersion [2]	effect of rimonabant pre-treatment on JZL184 analgesia, acetic acid writhing [3]	effect of rimonabant on JZL184 hypothermic effect [4]	movement, rimonabant on its own ([5]; rimonabant 3 mg/kg)	effect of rimonabant on JZL184-induced immobility ([5]; rimonabant 3 mg/kg before JZL184 16 mg/kg)	effect of rimonabant on JZL184 hyperreflexia effect [6]	FFA levels in shControl and shMAGL cancer cells [7]	migratory defect in shMAGL cancer cells [8]
NC(=O)c1cccc(-c2cccc(OC(=O)NC3CCCCC3)c2)c1 [URB597]	completely inhibited	without altering	significant elevations	–	–	–	–	–	–	–	–
Cc1c(C(=O)NN2CCCCC2)nn(-c2ccc(Cl)cc2Cl)c1-c1ccc(Cl)cc1 [rimonabant]	–	–	–	blocked	blocked	completely blocked	significant reductions in movement	partial blockade	completely blocked	unchanged	not rescued
